Test results reported in patent US7226935B2, “Hypoglycemic agent” (Japan Science and Technology Corporation, priority 2001, dated 2007).

Assays:
rat fat cells = test: Inhibition of free fatty acid release from epinephrine-stimulated rat fat cells; type: cell-based; conditions: 10^-5 M epinephrine, 3 hours at 37° C., VOSO4 is 1.00 mM, other values are relative to it, read-out: IC50 (mM), concentration that inhibits 50% fatty acid release
Procedure: According to the method described in Biol. Pharm.
In silicon-processed vials, the fat cells isolated in the above (2.5×10^6 cells/ml) were pre-incubated in 1 ml of KRB buffer that contains a varying concentration (10^−4, 5×10^−4, 10^−3 M) of VOSO4 different Zn(II) complexes of the invention and 20 mg/ml of BSA, at 37° C. for 0.5 hours. Next, 10^−5 M of epinephrine was added to the reaction mixture, and the resulting solution was incubated at 37° C. for 3 hours. The reaction was stopped by cooling the mixture with ice, and the mixture was centrifuged at 3000 rpm for 10 minutes. The free fatty acid (FFA) level in the extracellular solution was measured with an NEFA kit, and IC50 of the test compound was calculated.

KK-A^y mice = test: Glucose tolerance (glucose load) test in KK-A^y mice after 14-day administration; type: in vivo; conditions: for effect in glucose load test compared with Zn(2-AM-py)2Cl2 or Zn(Car)2Cl2 / diabetic condition in glucose load test: FIG. 21 and FIG. 22, 14-day intraperitoneal administration; for diabetic condition in glucose load test: vs diabetic control mice
From the text: This is a glucose load test effected according to the method described in Biochem. Biophys. Res. Comm., 281, 1190-1193 (2001), in which the zinc(II) complex of the invention was intraperitoneally administered to KK-A^y mice for 14 days or was not thereto. […]

Compound | IC50 (rat fat cells) [mM] | other results
O=S(=O)([O-])[O-].[O]=[V+2] [VOSO4, oxovanadium sulfate, reference compound] | 1 | –
C[C@H](O)C(=O)O.C[C@H](O)C(=O)O.[Zn] [Zn(Lac)2, L-lactic Acid (Lac)/zinc(II) complex] | 0.81 | –
O=C1O[C@H]([C@@H](O)CO)C(O)=C1[O-].O=C1O[C@H]([C@@H](O)CO)C(O)=C1[O-].[Zn+2] [Zn(Vit-C)2, bis(L-ascorbic acid)/zinc(II) complex] | 0.8 | –
L-carnitine (γ-trimethyl-β-hydroxybutyrobetaine=Car)/zinc(II) complex [Zn(Car)2Cl2] | 0.8 | –
bis(2-aminomethylpyridine)/zinc(II) complex [Zn(2-AM-py)2Cl2] | 0.85 | blood glucose level after 120 minutes (KK-A^y mice; FIG. 19, 13-hour fasting after 14-day intraperitoneal administration, 1 g/kg glucose orally): almost the normal level; peak top of blood glucose level after glucose administration (KK-A^y mice; FIG. 19, 13-hour fasting after 14-day intraperitoneal administration, 1 g/kg glucose orally, vs no complex administration): low peak top; blood glucose level after 120 minutes (KK-A^y mice; FIG. 20, 13-hour fasting after 14-day administration, 1 g/kg glucose orally): almost the normal level; peak top of blood glucose level after glucose administration (KK-A^y mice; FIG. 20, 13-hour fasting after 14-day administration, vs oral L-carnitine and acacia solution alone): low peak top
bis(glycyl-N,N′-ethylene-L-alanyl-L-alanine ethyl ester)/zinc(II) complex [Zn(Gly-eAA-OEt)2Cl2] | 0.85 | –
bis(quinic acid)/zinc(II) complex [Zn(Qui)2] | 0.98 | effect in glucose load test compared with Zn(2-AM-py)2Cl2 or Zn(Car)2Cl2 (KK-A^y mice): somewhat lower; diabetic condition in glucose load test (KK-A^y mice): significantly ameliorated
bis(vitamin U)/zinc(II) complex [Zn(Vit-U)Cl2] | 0.84 | effect in glucose load test compared with Zn(2-AM-py)2Cl2 or Zn(Car)2Cl2 (KK-A^y mice): somewhat lower; diabetic condition in glucose load test (KK-A^y mice): significantly ameliorated
bis-(R)-2-(1-aminoethyl)pyridine (=α-pyridylethylamine)/zinc(II) complex [Zn((R)-2-AM-py)2Cl2] | 0.4 | –
bis-(S)-2-(1-aminoethyl)pyridine/zinc(II) complex [Zn((S)-2-AM-py)2Cl2] | 0.39 | –
